# Results published in article PMC12652222 (International Journal of Molecular Sciences, 2025).
# Several values for one entry are separate records, joined by “and”; a condition that tells them apart may be missing. Equal values may be shown once.
# Assays:
# [1] = Nitric oxide (NO) radical scavenging; type: biochemical; conditions: mean ± SE, n = 3; for NO (%): inhibition % at 20 µg/mL
# Method: (§1) The antioxidant activity was assessed using the iron reducing power (IRP) and the total antioxidant capacity (TAC). Ascorbic acid served as a standard to calculate the inhibition percentages (%) and the median inhibitory concentration (IC50) of each tested compound against the following radicals: nitric oxide (NO), hydroxyl (OH), hydrogen peroxide (H2O2), ABTS [79], and DPPH [80].
# α-glucosidase = assay: α-Glucosidase inhibition; type: biochemical; conditions: for inhibition of α-glucosidase: at 20 µg/mL
# Method: (§2) The IC50 and inhibition percentages (Inhib. %) of the enzymes α-amylase and α-glucosidase were calculated.
# proteinase enzyme = assay: Proteinase inhibition (anti-arthritic); type: biochemical; set-up: Proteinase Inhibition (%): concentration or dose not given beside the values; conditions: mean ± SE, n = 3
# Method: (§3) Anti-arthritic activity was evaluated using diclofenac sodium as the reference drug. The inhibition percentage and IC50 were determined for protein denaturation and the proteinase enzyme.
# ABTS radical scavenging = type: biochemical; conditions: mean ± SE, n = 3; for ABTS (%): inhibition % at 20 µg/mL
# Method: as §1
# [2] = Total antioxidant capacity (TAC); type: biochemical; conditions: mean ± SE, n = 3
# Method: as §1
# α-amylase = biological target: T1, α-amylase (Homo sapiens, UniProt P04746); assay: α-Amylase inhibition; type: biochemical; conditions: for inhibition at 20 µg/mL: read-out: α-Amylase Inhibition (%)
# T1 sequence (P04746 16-511): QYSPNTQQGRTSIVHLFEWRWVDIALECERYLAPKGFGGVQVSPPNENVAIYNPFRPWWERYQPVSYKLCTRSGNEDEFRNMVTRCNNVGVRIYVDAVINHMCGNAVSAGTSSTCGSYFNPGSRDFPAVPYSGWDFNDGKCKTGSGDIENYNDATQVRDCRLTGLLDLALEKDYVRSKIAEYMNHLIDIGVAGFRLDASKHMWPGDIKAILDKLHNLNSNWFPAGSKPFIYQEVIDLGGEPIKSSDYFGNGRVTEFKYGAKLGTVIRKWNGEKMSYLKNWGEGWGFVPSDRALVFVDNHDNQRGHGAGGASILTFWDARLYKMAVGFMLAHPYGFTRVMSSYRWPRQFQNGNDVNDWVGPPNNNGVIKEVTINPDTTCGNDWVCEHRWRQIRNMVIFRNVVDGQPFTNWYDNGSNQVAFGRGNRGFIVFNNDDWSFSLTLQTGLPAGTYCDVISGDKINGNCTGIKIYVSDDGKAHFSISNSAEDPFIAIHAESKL
# Method: as §2
# [3] = Hydroxyl (OH) radical scavenging; type: biochemical; conditions: mean ± SE, n = 3; for OH (%): inhibition % at 20 µg/mL
# Method: as §1
# protein denaturation = assay: Protein denaturation inhibition (anti-arthritic); type: biochemical; set-up: concentration or dose not given beside the values; conditions: mean ± SE, n = 3
# Method: as §3
# DPPH radical scavenging = type: biochemical; conditions: mean ± SE, n = 3; for DPPH (%): inhibition % at 20 µg/mL
# Method: as §1
# [4] = Hydrogen peroxide (H2O2) scavenging; type: biochemical; conditions: mean ± SE, n = 3; for H2O2 (%): inhibition % at 20 µg/mL
# Method: as §1
# [5] = biological target: acetylcholinesterase (AChE) (Homo sapiens, UniProt P22303); assay: biochemical; conditions: mean ± SE, n = 3; for IC50: read-out: AChE IC50 (µg/mL) (converted)
# Method: The inhibition percentage and IC50 of the acetylcholinesterase (AChE) enzyme were measured using the Ellman method.
# [6] = Iron-reducing power (IRP); type: biochemical; conditions: mean ± SE, n = 3
# Method: as §1
# Sequence of acetylcholinesterase (AChE) (P22303 32-614, species assumed): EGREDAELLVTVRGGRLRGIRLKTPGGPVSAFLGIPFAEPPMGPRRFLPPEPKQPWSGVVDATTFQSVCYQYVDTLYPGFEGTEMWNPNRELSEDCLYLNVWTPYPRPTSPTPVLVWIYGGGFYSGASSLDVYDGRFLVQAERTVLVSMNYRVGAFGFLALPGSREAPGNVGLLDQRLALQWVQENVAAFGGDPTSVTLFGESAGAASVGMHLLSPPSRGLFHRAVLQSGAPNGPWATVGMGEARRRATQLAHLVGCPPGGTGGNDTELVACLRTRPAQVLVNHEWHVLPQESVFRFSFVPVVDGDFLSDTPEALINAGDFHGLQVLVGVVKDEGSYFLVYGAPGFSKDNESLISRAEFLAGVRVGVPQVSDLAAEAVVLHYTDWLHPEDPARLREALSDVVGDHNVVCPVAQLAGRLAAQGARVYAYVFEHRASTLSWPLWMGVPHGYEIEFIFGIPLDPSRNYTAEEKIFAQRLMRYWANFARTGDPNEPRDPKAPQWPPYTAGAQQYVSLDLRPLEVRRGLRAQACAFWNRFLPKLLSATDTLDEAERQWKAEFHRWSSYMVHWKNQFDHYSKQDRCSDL
SMILES,NO (%) [1] [%],NO radical scavenging IC50 [1] [µg/mL],α-Glucosidase IC50 (α-glucosidase) [µg/mL],Proteinase IC50 (proteinase enzyme) [µg/mL],Proteinase Inhibition (%) (proteinase enzyme),ABTS (%) (ABTS radical scavenging),ABTS radical scavenging IC50 (ABTS radical scavenging) [µg/mL],TAC (mg Gallic Acid/g) [2],inhibition at 20 µg/mL (α-amylase) [%],OH (%) [3] [%],OH radical scavenging IC50 [3] [µg/mL],Protein Denaturation Inhibition (%) (protein denaturation),DPPH (%) (DPPH radical scavenging),DPPH radical scavenging IC50 (DPPH radical scavenging) [µg/mL],H2O2 (%) [4] [%],H2O2 scavenging IC50 [4] [µg/mL],inhibition at 20 µg/mL [5] [%],IC50 [5] [µM],IRP [6],other results
"O=c1/c(=C\[C@H](O)[C@@H](O)[C@H](O)[C@H](O)CO)sc2nc3sc4c(c3c(=O)n12)CCCC4 [8a, (E)-2-((2S,3R,4R,5R)-2,3,4,5,6-pentahydroxyhexylidene)-6,7,8,9-tetrahydro-5H-benzo [4,5]thieno [2,3-d]thiazolo [3,2-a]-pyrimidine-3,5(2H)-dione]",4.80 ± 0.18,84.51 ± 2.12,64.26 ± 2.84,101.84 ± 3.59,4.57 ± 0.15,13.70 ± 0.18,23.63 ± 0.28,13.95 ± 0.18 mg Gallic Acid/g,10.1 ± 0.17,4.17 ± 0.15,113.71 ± 4.73,8.74 ± 0.15,10.55 ± 0.18,36.82 ± 0.42,4.67 ± 0.17,126.37 ± 4.09,5.81 ± 0.18,112,6.80 ± 0.18 µg/mL,–
"O=c1/c(=C\[C@H](O)[C@@H](O)[C@H](O)[C@H](O)CO)sc2nc3sc4c(c3c(=O)n12)CCC4 [7a, (E)-2-((2S,3R,4R,5R)-2,3,4,5,6-pentahydroxyhexylidene)-7,8-dihydro-5H,6H-cyclopenta-[4,5]thieno [2,3-d]thiazolo [3,2-a]pyrimidine-3,5(2H)-dione]",8.29 ± 0.22,48.89 ± 0.78,31.92 ± 0.89,62.33 ± 1.77,7.45 ± 0.18,17.19 ± 0.22,18.83 ± 0.22,17.44 mg Gallic Acid/g and 17.44 ± 0.22 mg Gallic Acid/g,13.4 ± 0.21,7.21 ± 0.19,65.77 ± 2.12,11.62 ± 0.18,14.04 ± 0.22,–,8.07 ± 0.21,73.10 ± 1.67,5.75 ± 0.18,117,10.29 µg/mL and 10.29 ± 0.22 µg/mL,–
"O=c1/c(=C\[C@@H](O)[C@H](O)[C@H](O)CO)sc2nc3sc4c(c3c(=O)n12)CCCC4 [8e, (E)-2-((2R,3S,4R)-2,3,4,5-tetrahydroxypentylidene)-6,7,8,9-tetrahydro-5H-benzo [4,5]thieno [2,3-d]thiazolo [3,2-a]pyrimidine-3,5(2H)-dione]",–,6.80 ± 0.16,3.81 ± 0.05,9.08 ± 0.11,50.90 ± 0.65,–,4.73 ± 0.05,68.69 mg Gallic Acid/g and 68.69 ± 0.79 mg Gallic Acid/g,62.2 ± 0.75,–,9.14 ± 0.05,54.07 ± 0.65,–,5.95 ± 0.12,–,10.17 ± 0.12,5.24 ± 0.17,134,61.54 µg/mL and 61.54 ± 0.79 µg/mL,inhibition of α-glucosidase (α-glucosidase): 55.43 ± 0.75%; IC50 (α-amylase): 16.3 µM
"O=c1/c(=C\[C@H](O)[C@@H](O)[C@@H](O)[C@H](O)CO)sc2nc3sc4c(c3c(=O)n12)CCC4 [7c, (E)-2-((2S,3R,4S,5R)-2,3,4,5,6-pentahydroxyhexylidene)-7,8-dihydro-5H,6H-cyclopenta [4,5]thieno [2,3-d]thiazolo [3,2-a]-pyrimidine-3,5(2H)-dione]",11.25 ± 0.26,36.00 ± 0.45,22.37 ± 0.53,46.88 ± 1.21,9.91 ± 0.21,20.15 ± 0.26,16.06 ± 0.19,20.40 ± 0.26 mg Gallic Acid/g,16.2 ± 0.24,9.78 ± 0.22,48.42 ± 1.40,14.08 ± 0.21,17.00 ± 0.26,22.84 ± 0.23,10.96 ± 0.25,53.83 ± 1.05,5.87 ± 0.19,115,13.25 ± 0.26 µg/mL,–
"O=c1/c(=C\[C@H](O)[C@@H](O)[C@H](O)CO)sc2nc3sc4c(c3c(=O)n12)CCC4 [7d, (E)-2-((2S,3R,4R)-2,3,4,5-tetrahydroxypentylidene)-7,8-dihydro-5H,6H-cyclopenta [4,5]thieno [2,3-d]thiazolo [3,2-a]-pyrimidine-3,5(2H)-dione]",10.94 ± 0.23,37.06 ± 1.13,23.09 ± 0.41,48.10 ± 0.46,9.65 ± 0.19,19.84 ± 0.23,16.31 ± 0.16,20.09 ± 0.23 mg Gallic Acid/g,15.9 ± 0.22,9.51 ± 0.20,49.77 ± 0.65,13.82 ± 0.19,16.69 ± 0.23,23.28 ± 0.49,10.65 ± 0.22,55.36 ± 1.03,4.4 ± 0.14,165,12.94 ± 0.23 µg/mL,–
"O=C1O[C@H]([C@@H](O)CO)C(O)=C1O [ascorbic acid, reference compound]",–,6.18,–,–,–,–,4.35,78.44 mg Gallic Acid/g,–,–,8.31,–,–,5.45,–,9.24,–,–,67.49 µg/mL,–
"O=C(O)Cc1ccccc1Nc1c(Cl)cccc1Cl [Diclofenac sodium, reference compound]",–,–,–,8.20 ± 0.06,56.57 ± 0.14,–,–,–,–,–,–,60.74 ± 0.14,–,–,–,–,–,–,–,–
"C[C@H]1O[C@H](O[C@H]2[C@H](O)[C@@H](O)[C@@H](O[C@H]3[C@H](O)[C@@H](O)C(O)O[C@@H]3CO)O[C@@H]2CO)[C@H](O)[C@@H](O)[C@@H]1N[C@H]1C=C(CO)[C@@H](O)[C@H](O)[C@H]1O (some centres unmarked) [Acarbose, reference compound]",–,–,–,–,–,–,–,–,69.85 ± 0.16,–,–,–,–,–,–,–,–,–,–,inhibition of α-glucosidase (α-glucosidase): 63.10 ± 0.16%
"O=c1/c(=C\[C@H](O)[C@@H](O)[C@H](O)CO)sc2nc3sc4c(c3c(=O)n12)CCCC4 [8d, (E)-2-((2S,3R,4R)-2,3,4,5-tetrahydroxypentylidene)-6,7,8,9-tetrahydro-5H-benzo [4,5]thieno [2,3-d]thiazolo [3,2-a]-pyrimidine-3,5(2H)-dione]",7.87 ± 0.21,51.52 ± 0.85,33.99 ± 0.98,65.40 ± 1.90,7.11 ± 0.18,16.77 ± 0.21,19.31 ± 0.23,17.02 ± 0.21 mg Gallic Acid/g,13 ± 0.2,6.84 ± 0.19,69.29 ± 2.28,11.28 ± 0.18,13.62 ± 0.21,28.53 ± 0.30,7.66 ± 0.21,77.03 ± 1.82,5.61 ± 0.18,125,9.87 ± 0.21 µg/mL,–
